Reference: patent publication US20040185509A1, “Eosinophil prostaglandin d2 receptor assays” (priority 2001, published 2004)
“Also recorded” adds a separate entry of the source.

Experiments:
[1] = system: purified human eosinophils; assay: In vitro eosinophil apoptosis assay (Annexin V/propidium iodide, flow cytometry); format: cell-based; settings: for effect on eosinophil apoptosis / percentage of non-apoptotic eosinophils (result in words): 36 hours in culture, 1 μM, interleukin-5 at 1 ng/ml, FIG. 5
Method: Purified eosinophils were resuspended at 2.0×10^5 cells per ml in RPMI 1640 medium supplemented with 10% (v/v) fetal bovine serum, 2 mM glutamine, and 100 units of penicillin and streptomycin. Compounds to be tested were diluted 1:1000 to their final concentration and the cells were incubated at 37° C. in a CO2 chamber for 36 hours. The extent of apoptosis in the eosinophil population was evaluated using the TACS™ Annexin-V-FITC apoptosis detection kit (R&D systems). Non-apoptotic cells are not stained with either Annexin-V FITC or propidium iodide. Early apoptotic cells are stained with Annexin-V FITC but not propidium iodide (green fluorescence). Late apoptotic cells are stained with both Annexin-V FITC and propidium iodide (dual green and red fluorescence). Necrotic cells are only stained with propidium iodide (red fluoresecence). Labeled eosinophils were analyzed in a FACS Calibur system from Becton Dickinson.
The ability of PGD2 to modulate apoptosis in eosinophils was measured by quantifying the capacity of Annexin V to bind to phosphatidylserine on the outer membrane of apoptotic cells. (Koopman, et al., Blood 84:1415, 1994.) Necrotic cell death was determined by propidium iodide uptake. (Darzynkiewicz, et al., Cytometry 13:795, 1992.) Annexin V-FITC and propidium iodide staining of eosinophils was evaluated by FACS analysis.

[2] = system: purified human eosinophils; assay: Eosinophil morphology change by light microscopy; format: cell-based
Method: Purified eosinophils were incubated in RPMI 1640 media supplemented with 0.5% fetal bovine serum in the presence of the compound to be tested for 15 minutes in a 24-well dish. Light microscopy was performed with an inverted Axiovert 25 (Zeiss) and images were obtained with a 35 mm SLR camera (ARIA CONTAX, Kyocera corporation) using Kodak Elite Chrome 160T film.
Vehicle-treated eosinophils were spherical and only weakly adhered to the culture dish. […] This effect was seen on the majority of eosinophils from all donors analysed (n=20).

[3] = system: purified human eosinophils; assay: Eosinophil chemokinesis (chemotactic chamber without chemoattractant in the lower chamber); format: cell-based; settings: for stimulation of eosinophil chemokinesis (result in words): FIG. 3: BW245C 1 μM, DK-PGD2 100 nM, PAF 100 nM, IL-5 1 ng/ml, PGE2, fluprostenol and latanoprost 1 μM; for increase in eosinophil chemokinesis: data not shown
Method: Purified eosinophils were resuspended at 3.0×10^6 cells per ml in RPMI 1640 medium supplemented with 0.5% (v/v) fetal bovine serum. Compounds to be tested were added from 1000× concentrated stock solutions to 100 μl of cells in a 1.5 ml centrifuge tube and incubated at room temperature for 5 minutes. 100 μl of treated cells were then added to the top half of a chemotactic chamber (6.5 mm Transwell, 3.0 μm polycarbonate membrane from Costar) and 600 μl of RPMI, supplemented with 0.5% (v/v) fetal bovine serum, was added to the bottom chamber. After a 2 hour incubation at 37° C. in a CO2 chamber, the top chamber was discarded and the number of cells that had migrated to the lower chamber was evaluated by counting the cells using an hematocytometer. For each condition tested, the number of migrating eosinophils in two chemotactic chambers was averaged.
Chemokinesis was measured by incubating eosinophils with PGD2 for 5 minutes prior to their loading in the upper chamber of a chemotactic unit lacking a chemoattractant in the lower chamber. PGD2 at a concentration of […] increased eosinophil chemokinesis by 6-fold compared to cells treated with vehicle only (FIG. 3). PGD2 at concentrations of 10 nM and 1 μM increased eosinophil chemokinesis by a factor of 5 and 9-fold respectively (data not shown).

[4] = system: purified human eosinophils; assay: Eosinophil degranulation (release of ECP into the media, radioimmunoassay); format: cell-based; settings: for release of ECP from eosinophils (result in words): FIG. 4: DK-PGD2 100 nM, BW245C 1 μM, FP and EP agonists 1 μM
Method: Purified eosinophils were resuspended at 3.0×10^6 cells per ml in RPMI 1640 medium supplemented with 0.5% (v/v) fetal bovine serum. Compounds to be tested were diluted 1:1000 to their final concentration in 300 μl of cells in a 1.5 ml centrifuge tube. The cells were immediately transferred to a 24-well plate. After an 1 hour incubation at 37° C. in a CO2 chamber, the cells were removed by centrifugation (4° C., 300× g, 10 minutes). Eosinophil cationic protein (ECP) in the supernatant was quantified by a double antibody radioimmunoassay (Pharmacia) following the manufacturer's protocol.
Degranulation of eosinophils was assayed by challenging freshly isolated eosinophils with PGD2 and measuring release of the eosinophil cationic protein (ECP) into the media using an ECP-specific radioimmunoassay.

eosinophils = assay: Eosinophil chemotaxis (agent in the bottom chamber of the chemotactic unit); format: cell-based, human; settings: data not shown
Method: Chemotaxis was measured by adding PGD2 to the bottom chamber of a chemotactic unit containing eosinophils in the top chamber.

[5] = 15 minutes, FIG. 2: DK-PGD2 10 nM, PAF 100 nM, IL-5 1 ng/ml

O=C(O)CCC/C=C\C[C@@H]1[C@@H](/C=C/[C@@H](O)COc2cccc(C(F)(F)F)c2)[C@H](O)C[C@@H]1O (racemic) [fluprostenol]
effect on eosinophil apoptosis / percentage of non-apoptotic eosinophils (result in words) [1]: not significant | change in eosinophil morphology ([2]; μM doses, data not shown): did not cause, even at μM doses, any alterations of eosinophil morphology | stimulation of eosinophil chemokinesis (result in words) [3]: failed to modulate eosinophil migration

O=C(O)CCCCCCC1C(=O)NC(=O)N1CCC(O)C1CCCCC1 (stereo not drawn) [BW245C]
increase in the percentage of non-apoptotic eosinophil ([1]; BW245C 1 μM, 36 hours, over vehicle treated population, 9 donors): 17% | change in eosinophil morphology ([2]; concentrations as high as 1 μM, panel 2c): did not affect eosinophil shape | stimulation of eosinophil chemokinesis (result in words) [3]: not BW245C was effective in stimulating eosinophil chemokinesis | release of ECP from eosinophils (result in words) ([4]; 1 hour): not BW245C, significantly increased the release of ECP

CCCCCC(=O)CCC1C(=O)CC(O)C1C/C=C\CCCC(=O)O (stereo not drawn) [DK-PGD2, 13,14-dihydro-15-keto-PGD2]
effect on eosinophil apoptosis / percentage of non-apoptotic eosinophils (result in words) [1]: no significant effect | change in eosinophil morphology [2, 5]: induced a morphological change identical to that observed with PGD2 | stimulation of eosinophil chemokinesis (result in words) [3]: effective in stimulating eosinophil chemokinesis | release of ECP from eosinophils (result in words) ([4]; 1 hour): significantly increased the release of ECP

CCCCC[C@H](O)/C=C/[C@H]1C(=O)C[C@H](O)[C@@H]1C/C=C\CCCC(=O)O [PGD2, Prostanglandin D2]
effect on eosinophil apoptosis / percentage of non-apoptotic eosinophils (result in words) [1]: weak inhibitor of apoptotic cell death | morphology change after a second PGD2 challenge ([2]; PGD2-treated eosinophils, data not shown): resistant to morphology changes after a second PGD2 challenge | change in eosinophil morphology ([2]; PGD2 <10 nM, within minutes, n=20 donors): induced dramatic changes in cell morphology | reversion of treated eosinophils to spherical shape ([2]; after PGD2 treatment): reverted to a spherical shape within six hours | chemotactic (chemoattractant) effect on eosinophils (eosinophils; PGD2 added to the bottom chamber): not observed to exert a chemotatic effect; also recorded: did not attract eosinophils to the lower chamber | chemotactic response of pre-incubated eosinophils to PAF or eotaxin (eosinophils; pre-incubation up to 1 μM for 5 minutes to 18 hours): did not have an altered chemotactic response | increase in eosinophil chemokinesis ([3]; 10 nM): 5 fold | increase in eosinophil chemokinesis ([3]; 1 μM): 9 fold | increase in eosinophil chemokinesis compared to cells treated with vehicle only ([3]; 100 mM (so in the source), 5 minutes pre-treatment, 2 hours migration, FIG. 3): 6 fold | stimulation of eosinophil chemokinesis (result in words) [3]: increased cell motility in the absence of a chemical gradient | release of ECP from eosinophils into the media ([4]; 10 to 100 nM, 1 hour, FIG. 4): significantly increased the release of ECP | release of the granular protein EDN from eosinophils ([4]; after PGD2 challenge, data not shown): observed the release from eosinophils of another granular protein, EDN | extent of ECP release relative to PAF ([4]; average over donors): about half that seen with PAF

CCCCC[C@H](O)/C=C/[C@H]1[C@H](O)CC(=O)[C@@H]1C/C=C\CCCC(=O)O [PGE2]
effect on eosinophil apoptosis / percentage of non-apoptotic eosinophils (result in words) [1]: increased the percentage of non-apoptotic eosinophils | change in eosinophil morphology ([2]; μM doses, data not shown): did not cause, even at μM doses, any alterations of eosinophil morphology | stimulation of eosinophil chemokinesis (result in words) [3]: failed to modulate eosinophil migration

CC(C)OC(=O)CCC/C=C\C[C@@H]1[C@@H](CC[C@@H](O)CCc2ccccc2)[C@H](O)C[C@@H]1O [latanoprost]
effect on eosinophil apoptosis / percentage of non-apoptotic eosinophils (result in words) [1]: not significant | change in eosinophil morphology ([2]; μM doses, data not shown): did not cause, even at μM doses, any alterations of eosinophil morphology | stimulation of eosinophil chemokinesis (result in words) [3]: failed to modulate eosinophil migration

Il-5: Recombinant human interleukin-5 produced using a baculovirus system and purified by FPLC
effect on eosinophil apoptosis / percentage of non-apoptotic eosinophils (result in words) [1]: increased the percentage of non-apoptotic eosinophils | change in eosinophil morphology [2, 5]: lead to a rapid change in eosinophil morphology | stimulation of eosinophil chemokinesis (result in words) [3]: able to stimulate eosinophil chemokinesis
